{"source": "ChEMBL document CHEMBL3217669", "about": "“Activation of a silent phenazine biosynthetic gene cluster reveals a novel natural product and a new resistance mechanism against phenazines” (Medchemcomm, 2012)", "assay_type_in_all_cases": "functional, organism-based", "key": {"[1]": {"test_system": "Escherichia coli", "experiment": "Antibacterial activity against Escherichia coli K-12 assessed as growth inhibition at 0.5 umol after overnight incubation"}, "[2]": {"test_system": "Bacillus subtilis", "experiment": "Antibacterial activity against Bacillus subtilis ATCC 14893 assessed as growth inhibition at 0.5 umol after overnight incubation"}, "[3]": {"test_system": "Streptomyces coelicolor", "experiment": "Antibacterial activity against Streptomyces coelicolor M512 assessed as growth inhibition up to 0.5 umol after 48 hrs"}}, "note": "Active and inactive are the calls of the source. The calls are words filed in the database; no cut-off is given here.", "data": [{"molecule": "O=C(O)c1cccc2nc3ccccc3nc12", "values": [{"measurement": "growth inhibition (GI)", "setting": "[1]", "value": "inactive"}, {"measurement": "growth inhibition (GI)", "setting": "[2]", "value": "Active"}, {"measurement": "growth inhibition (GI)", "setting": "[3]", "value": "inactive"}]}, {"molecule": "NC(=O)CC[C@H](NC(=O)c1cccc2nc3ccccc3nc12)C(=O)O", "values": [{"measurement": "growth inhibition (GI)", "setting": "[1]", "value": "inactive"}, {"measurement": "growth inhibition (GI)", "setting": "[2]", "value": "inactive"}, {"measurement": "growth inhibition (GI)", "setting": "[3]", "value": "inactive"}]}]}
